Drawing on paper PMC5752595 (Molecular cancer therapeutics, 2017), this text covers IC50 for one molecule.

Structures are written as SMILES.

What all share (assay): in vitro kinase assay
Test [1] has as its target OSR1 (Homo sapiens, UniProt O95747). It counts as biochemical.
For test [2], the target named is RSK1 (Homo sapiens, UniProt Q15418). The test is classed as biochemical.
In test [3] the target is CAMKK2 (Homo sapiens, UniProt Q96RR4). It counts as biochemical.
Test [4] concerns the target FER (Homo sapiens, UniProt P16591). It counts as biochemical.
For test [5], the target named is RSK2 (Homo sapiens, UniProt P51812). The test is classed as biochemical.
Sequence of RSK2 (P51812 whole entry): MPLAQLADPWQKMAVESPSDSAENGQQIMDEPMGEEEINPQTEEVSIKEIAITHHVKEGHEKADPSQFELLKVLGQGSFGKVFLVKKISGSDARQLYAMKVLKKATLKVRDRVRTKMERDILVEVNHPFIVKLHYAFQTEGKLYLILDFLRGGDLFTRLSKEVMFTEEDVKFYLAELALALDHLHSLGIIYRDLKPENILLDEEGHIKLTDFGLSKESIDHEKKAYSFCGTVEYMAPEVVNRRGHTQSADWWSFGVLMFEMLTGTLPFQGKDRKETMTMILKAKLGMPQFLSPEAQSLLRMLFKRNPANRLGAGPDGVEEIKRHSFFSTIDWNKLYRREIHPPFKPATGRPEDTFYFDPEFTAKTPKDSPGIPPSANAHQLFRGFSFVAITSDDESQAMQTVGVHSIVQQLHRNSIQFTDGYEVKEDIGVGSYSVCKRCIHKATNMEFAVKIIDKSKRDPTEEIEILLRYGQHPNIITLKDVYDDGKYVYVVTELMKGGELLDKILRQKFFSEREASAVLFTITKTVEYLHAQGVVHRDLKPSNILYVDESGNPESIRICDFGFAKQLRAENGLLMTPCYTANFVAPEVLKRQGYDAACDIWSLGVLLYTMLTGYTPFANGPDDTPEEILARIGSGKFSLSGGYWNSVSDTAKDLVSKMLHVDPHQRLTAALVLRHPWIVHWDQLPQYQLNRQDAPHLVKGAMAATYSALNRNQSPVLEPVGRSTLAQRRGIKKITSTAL
Test [6] deals with AMPK. The test is classed as biochemical, Homo sapiens. The note with it: read-out: Ceritinib.

Sequence of OSR1 (O95747 2-527): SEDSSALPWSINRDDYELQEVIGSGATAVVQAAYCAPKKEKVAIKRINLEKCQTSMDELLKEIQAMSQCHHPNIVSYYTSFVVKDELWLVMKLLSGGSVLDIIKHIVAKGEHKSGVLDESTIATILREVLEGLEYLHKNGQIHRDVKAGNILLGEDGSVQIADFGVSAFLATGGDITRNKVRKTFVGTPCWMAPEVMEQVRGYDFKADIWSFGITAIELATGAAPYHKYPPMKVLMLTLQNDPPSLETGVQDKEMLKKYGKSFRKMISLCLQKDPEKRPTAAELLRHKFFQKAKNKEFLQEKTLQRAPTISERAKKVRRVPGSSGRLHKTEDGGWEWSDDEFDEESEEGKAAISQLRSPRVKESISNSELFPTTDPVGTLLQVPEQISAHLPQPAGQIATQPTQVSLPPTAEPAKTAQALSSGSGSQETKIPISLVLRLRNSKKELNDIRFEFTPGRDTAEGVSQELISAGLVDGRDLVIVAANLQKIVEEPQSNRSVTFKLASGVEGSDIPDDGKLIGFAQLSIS
Sequence of FER (P16591 whole entry): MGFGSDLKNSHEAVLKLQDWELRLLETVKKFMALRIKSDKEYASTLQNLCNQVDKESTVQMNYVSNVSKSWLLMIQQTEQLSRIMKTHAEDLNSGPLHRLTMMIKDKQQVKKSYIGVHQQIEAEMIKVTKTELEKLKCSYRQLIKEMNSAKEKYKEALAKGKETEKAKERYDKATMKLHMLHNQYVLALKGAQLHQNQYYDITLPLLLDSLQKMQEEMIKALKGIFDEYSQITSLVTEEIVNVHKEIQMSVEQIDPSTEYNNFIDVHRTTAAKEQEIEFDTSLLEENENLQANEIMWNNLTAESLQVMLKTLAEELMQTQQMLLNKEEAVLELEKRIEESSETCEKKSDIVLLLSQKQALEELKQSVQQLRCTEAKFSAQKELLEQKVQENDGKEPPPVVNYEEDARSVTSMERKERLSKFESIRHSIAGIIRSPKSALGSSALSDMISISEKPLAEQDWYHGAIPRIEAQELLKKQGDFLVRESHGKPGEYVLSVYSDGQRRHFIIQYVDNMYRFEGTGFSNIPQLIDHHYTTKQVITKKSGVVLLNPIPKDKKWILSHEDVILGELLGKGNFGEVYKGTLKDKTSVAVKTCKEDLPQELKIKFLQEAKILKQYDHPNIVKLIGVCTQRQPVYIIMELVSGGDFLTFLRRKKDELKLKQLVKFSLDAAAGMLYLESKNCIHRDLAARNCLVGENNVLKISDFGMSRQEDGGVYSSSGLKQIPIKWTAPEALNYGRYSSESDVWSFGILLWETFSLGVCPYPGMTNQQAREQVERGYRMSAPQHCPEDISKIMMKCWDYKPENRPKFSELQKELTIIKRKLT
Sequence of RSK1 (Q15418 whole entry): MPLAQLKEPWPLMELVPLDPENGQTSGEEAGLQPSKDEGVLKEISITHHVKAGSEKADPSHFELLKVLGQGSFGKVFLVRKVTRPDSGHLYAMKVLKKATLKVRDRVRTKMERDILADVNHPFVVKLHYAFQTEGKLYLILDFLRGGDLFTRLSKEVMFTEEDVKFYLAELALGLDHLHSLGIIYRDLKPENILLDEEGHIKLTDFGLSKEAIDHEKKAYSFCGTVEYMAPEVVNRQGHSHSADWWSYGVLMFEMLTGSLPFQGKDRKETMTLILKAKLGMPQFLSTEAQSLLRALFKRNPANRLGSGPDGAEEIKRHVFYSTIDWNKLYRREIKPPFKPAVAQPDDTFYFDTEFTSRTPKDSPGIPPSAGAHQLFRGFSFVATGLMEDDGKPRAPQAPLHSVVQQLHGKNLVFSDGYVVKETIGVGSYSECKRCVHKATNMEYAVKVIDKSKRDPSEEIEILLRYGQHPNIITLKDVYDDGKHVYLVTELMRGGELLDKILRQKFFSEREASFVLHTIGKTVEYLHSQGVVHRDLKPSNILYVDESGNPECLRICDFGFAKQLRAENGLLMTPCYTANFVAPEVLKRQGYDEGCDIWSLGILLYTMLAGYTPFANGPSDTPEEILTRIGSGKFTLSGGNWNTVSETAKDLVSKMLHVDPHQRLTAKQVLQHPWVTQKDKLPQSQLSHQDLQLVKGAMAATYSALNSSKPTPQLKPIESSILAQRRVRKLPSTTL
Sequence of CAMKK2 (Q96RR4 2-588): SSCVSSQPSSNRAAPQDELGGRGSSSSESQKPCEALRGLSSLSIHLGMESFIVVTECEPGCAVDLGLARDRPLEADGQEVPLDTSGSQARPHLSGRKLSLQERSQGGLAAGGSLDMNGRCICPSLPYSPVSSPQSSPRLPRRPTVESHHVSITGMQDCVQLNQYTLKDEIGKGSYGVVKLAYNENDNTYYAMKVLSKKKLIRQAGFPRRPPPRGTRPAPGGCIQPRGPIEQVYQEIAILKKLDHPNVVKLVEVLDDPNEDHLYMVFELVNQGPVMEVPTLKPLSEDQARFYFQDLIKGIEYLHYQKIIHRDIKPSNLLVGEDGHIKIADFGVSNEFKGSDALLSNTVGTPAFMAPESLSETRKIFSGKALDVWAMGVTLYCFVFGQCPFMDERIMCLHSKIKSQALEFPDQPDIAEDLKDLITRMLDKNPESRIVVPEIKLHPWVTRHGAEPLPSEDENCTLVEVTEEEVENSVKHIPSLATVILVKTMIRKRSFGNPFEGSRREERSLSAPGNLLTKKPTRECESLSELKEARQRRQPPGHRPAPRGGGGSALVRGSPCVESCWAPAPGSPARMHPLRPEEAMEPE

`Cc1cc(Nc2ncc(Cl)c(Nc3ccccc3S(=O)(=O)C(C)C)n2)c(OC(C)C)cc1C1CCNCC1` [ceritinib]: the IC50 was found to be 881 nM in test [1]; 966 nM in test [2]; 75.3 nM in test [3]; 11.7 nM in test [4]; 418 nM in test [5]; 2360 nM in test [6].
